Experimental data from the supplement of paper PMC10307832.

How the values were obtained:
Test in all cases: relative viability (nuclei count vs DMSO), 5 days (fraction); higher = more cells survive
[1] = compound: COC1=CC=C(C=C1)CN2C=CC3=C2C=C(C=C3)C(=O)NO + NC(=O)Nc1cc(-c2cccc(F)c2)sc1C(=O)N[C@H]1CCCNC1 [AZD7762] (partner 0.2 µM)
Method in brief: (§1)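 For relative viability, nuclei counts in treated wells were divided by those in vehicle wells. Lung cancer cell lines had been pin-tool dosed in 1536-well plates the day after seeding and cultured for 5 days, then fixed and stained in one step (final 0.05% Triton X-100, 1% formaldehyde, 1 ug/ml Hoechst) and imaged at 4×. Doses were one drug alone or a fixed anchor-drug dose plus five library-drug doses (not always all listed) in √10 steps, and values are duplicate-plate medians.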

[2] = compound: COC1=CC=C(C=C1)CN2C=CC3=C2C=C(C=C3)C(=O)NO + CCNC(=O)c1noc(-c2cc(C(C)C)c(O)cc2O)c1-c1ccc(CN2CCOCC2)cc1 [Luminespib] (partner 0.01 µM)
Method in brief: as §1

[3] = compound: C[C@]1(c2nc3c(C(N)=O)cccc3[nH]2)CCCN1 [Veliparib] + CC(=O)c1c(C)c2cnc(Nc3ccc(N4CCNCC4)cn3)nc2n(C2CCCC2)c1=O [Palbociclib] (partner 0.5 µM)
Method in brief: as §1

[4] = compound: COC1=CC=C(C=C1)CN2C=CC3=C2C=C(C=C3)C(=O)NO + CC(=O)c1c(C)c2cnc(Nc3ccc(N4CCNCC4)cn3)nc2n(C2CCCC2)c1=O [Palbociclib] (partner 0.5 µM)
Method in brief: as §1

| Cell Line | relative viability ([1]; first compound 0.253 µM) | relative viability ([1]; first compound 0.8 µM) | relative viability ([1]; first compound 2.53 µM) | relative viability ([1]; first compound 8 µM) | relative viability ([2]; first compound 0.08 µM) | relative viability ([2]; first compound 0.253 µM) | relative viability ([2]; first compound 0.8 µM) | relative viability ([2]; first compound 2.53 µM) | relative viability ([2]; first compound 8 µM) | relative viability ([3]; first compound 0.02 µM) | relative viability ([3]; first compound 0.06325 µM) | relative viability ([3]; first compound 0.2 µM) | relative viability ([3]; first compound 0.6325 µM) | relative viability ([3]; first compound 2 µM) | relative viability ([4]; first compound 0.253 µM) | relative viability ([4]; first compound 0.8 µM) | relative viability ([4]; first compound 2.53 µM) | relative viability ([4]; first compound 8 µM) | relative viability ([1]; first compound 0.08 µM) | relative viability ([4]; first compound 0.08 µM) |
| --- | --- | --- | --- | --- | --- | --- | --- | --- | --- | --- | --- | --- | --- | --- | --- | --- | --- | --- | --- | --- |
| NCI-H522 | 0.792 | 1.06 | 0.951 | 0.612 | 1.01 | 1.13 | 1.18 | 1.06 | 1.22 | 1.01 | 0.864 | 1.18 | 1.11 | 1 | 0.944 | 0.972 | 0.999 | 0.955 | – | – |
| BEN | 0.507 | 0.628 | 0.594 | 0.549 | 0.427 | 0.286 | 0.23 | 0.354 | 0.218 | 0.466 | 0.491 | 0.479 | 0.5 | 0.465 | 0.466 | 0.487 | 0.52 | 0.489 | 0.628 | 0.468 |
| NCI-H2126 | 1.03 | 0.992 | 1.09 | 0.962 | 0.839 | 0.967 | 0.944 | 0.917 | 0.881 | 0.357 | 0.357 | 0.373 | 0.33 | 0.313 | 0.339 | 0.368 | 0.361 | 0.376 | 1 | 0.34 |
| NCI-H1437 | 1.13 | 1.03 | 1.13 | 1.1 | 1 | 1.13 | 1.09 | 1.18 | 1.13 | 0.304 | 0.323 | 0.281 | 0.362 | 0.335 | 0.295 | 0.344 | 0.366 | 0.326 | 1.02 | 0.283 |
| NCI-H322M | – | 0.579 | 0.668 | 0.491 | – | 0.867 | 0.909 | 0.841 | 0.664 | – | 0.491 | 0.48 | 0.514 | 0.49 | – | 0.513 | 0.435 | 0.48 | – | – |
| NCI-H1355 | 0.817 | 0.745 | 0.761 | 0.574 | – | 0.834 | 0.776 | 0.7 | 0.522 | 0.305 | 0.396 | 0.375 | 0.417 | 0.402 | 0.471 | 0.425 | 0.413 | 0.411 | 0.392 | 0.382 |
| NCI-H838 | 0.981 | 0.949 | 0.967 | 0.909 | – | 0.315 | 0.364 | 0.354 | 0.381 | 0.22 | 0.191 | 0.235 | 0.225 | 0.224 | 0.237 | 0.226 | 0.228 | 0.18 | 0.694 | 0.214 |
| EPLC-272H | 0.253 | 0.196 | 0.229 | 0.185 | 0.262 | – | 0.333 | 0.4 | 0.235 | – | 0.355 | 0.35 | 0.317 | 0.302 | 0.325 | 0.314 | 0.311 | 0.319 | – | – |
| NCI-H23 | 0.312 | 0.32 | 0.271 | 0.154 | – | – | 0.226 | 0.221 | 0.204 | 0.546 | 0.428 | 0.445 | 0.486 | 0.516 | 0.611 | 0.556 | 0.496 | 0.461 | 0.257 | 0.393 |
| EMC-BAC-2 | – | 1.22 | 1.11 | 1 | 0.964 | 1.25 | 1.16 | 1.21 | 1.11 | 0.527 | 0.487 | 0.512 | 0.486 | 0.544 | – | 0.528 | 0.511 | 0.459 | 0.878 | 0.401 |
| NCI-H2405 | – | 0.85 | 0.796 | 0.505 | 0.59 | 0.689 | 0.77 | 0.679 | 0.583 | 0.529 | – | 0.569 | 0.504 | 0.503 | – | 0.55 | 0.513 | 0.481 | 0.706 | 0.476 |
| NCI-H650 | 0.686 | 0.816 | 1.1 | 0.763 | 0.816 | 0.758 | 0.774 | 0.745 | 0.574 | 0.309 | 0.278 | 0.344 | 0.33 | 0.331 | 0.381 | 0.353 | 0.319 | 0.32 | 0.944 | 0.328 |
| HCC-15 | 1.19 | 1.23 | 1.58 | 1.1 | 0.319 | 0.277 | 0.304 | 0.45 | 0.34 | 0.679 | 0.675 | 0.782 | 0.703 | 0.718 | 0.716 | 0.733 | 0.745 | 0.739 | 1.3 | 0.712 |
| PC-14 | 0.276 | 0.393 | 0.315 | 0.381 | – | – | 0.184 | 0.14 | 0.134 | – | 0.514 | 0.51 | 0.465 | 0.523 | 0.599 | 0.567 | 0.509 | 0.535 | 0.263 | 0.533 |
| NCI-H1944 | 0.516 | 0.481 | 0.475 | 0.428 | – | 0.788 | 0.791 | 0.748 | 0.728 | 0.302 | 0.348 | 0.355 | 0.324 | 0.329 | 0.36 | 0.315 | 0.338 | 0.308 | – | – |
| HCC-44 | 1.01 | 0.99 | 1.01 | 1.04 | 0.908 | 1.05 | 1.01 | 0.936 | 0.837 | 1 | 0.834 | 0.996 | 0.964 | 1.01 | 0.926 | 1.01 | 0.978 | 0.969 | 0.938 | 0.936 |
| H3255 | 0.774 | 0.831 | 0.843 | 0.744 | 0.846 | 0.789 | 1.03 | 0.896 | 0.589 | 0.344 | 0.309 | 0.298 | 0.304 | 0.358 | 0.304 | 0.316 | 0.311 | 0.32 | 0.925 | 0.301 |
